Values after ≈ are worked out from the molar mass of the structure shown. Read-outs that look alike come from different tables or passages of the source.
Assays:
[1] = target: Constitutive 20S proteasome chymotrypsin-like (CT-L) activity (Homo sapiens (Human), UniProt P20618+P28074); test: Constitutive 20S proteasome CT-L activity inhibition, fluorogenic substrate succinyl-Leu-Leu-Val-Tyr-AMC; format: biochemical
Method: (§1) Inhibition of the 20S proteasome can be determined by methods and assays known in the art, for example, as disclosed by Stein et al., Biochemistry (1996), 35, 3899-3908; by Lightcap et al., Clinical Chemistry, 2000, 46, 673-683; by Kisselev et al., Journal of Biological Chemistry. (2006), 281, 8582-8590 and in U.S. application Ser. No. 09/569,748. The chymotrypsin-like (CT-L), peptidylglutamyl peptide hydrolyzing (PGPH) and trypsin-like (T-L) activities of the 20S proteasome are measured with a fluorogenic substrate assay method using succinyl-Leu-Leu-Val-Tyr-AMC, Z-Leu-Leu-Glu-AMC and Boc-Leu-Arg-Arg-AMC, respectively, as the substrates in an assay buffer. The free fluorophore 7-Amino-4-methylcoumarin (AMC) after cleavage from the substrates is quantified using a fluorometer and activity of CT-L, PGPH and T-L of 20S proteasome is determined.
(§2) Inhibition of the chymotrypsin-like (CT-L), peptidylglutamyl peptide hydrolyzing activity (PGPH), and trypsin-like (T-L) activities of the 20S proteasome in enzymatic assays were determined using succinyl-Leu-Leu-Val-Tyr-AMC (10 μmol/L), Z-Leu-Leu-Glu-AMC (10 μmol/L) and Boc-Leu-Arg-Arg-AMC (50 μmol/L), respectively, as the substrates with purified human 20S proteasome at 2, 4 and 8 nmol/L, respectively, in the assay buffer containing 25 mM HEPES (pH7.5), 0.5 mM EDTA, 0.002% sodium dodecyl sulfate (SDS) and 0.05% NP-40. Stock solutions of the 20S proteasome inhibitors disclosed herein were prepared in dimethyl sulfoxide (DMSO) and the final DMSO concentration in the assay mixture was 1%. Reaction was conducted at room temperature for one hour. Proteasome activity was measured based on detection of the fluorophore 7-Amino-4-methylcoumarin (AMC) after cleavage from the substrates with a plate-based spectrofluorometer.

[2] = system: CT-L activity of the 20S proteasome in blood samples; test: Inhibition of proteasome CT-L activity in blood samples from dosed Balb/c mice; format: in vivo; conditions: one hour after dosing, vs vehicle
Method: (§3) The proteasome activity in the blood samples collected from mice administrated of the vehicle was considered as 100% (control group). The remaining activity was calculated by comparing the proteasome activity in the blood samples collected from mice administrated of a compound described herein via intravenous injection (IV) at 10 mg/kg or via oral gavage (PO) at 30 mg/kg to the control group.
(§4) Balb/c mice were administered of either a vehicle (20% (w/v) hydroxypropyl-β-cyclodextrin in 10 mM sodium citrate at pH3.5), or a compound described herein at a tolerated dose via intravenous injection at 10 mg/kg or oral gavage at 30 mg/kg. One hour after dosing, whole blood samples were collected into tubes containing sodium heparin by cardiac puncture and centrifuged at 150×g for 5 minutes at 4° C. The resulting pellet was washed using ice-cold phosphate buffered saline (PBS) three times. […] The concentration of the blood lysate was measured by BCA method. […] The free AMC fluorescence was quantified using a 360/460 nm filter set in a fluorometer to measure the CT-L, PGPH or T-L activities of the 20S proteasome. Percent inhibition of the proteasome activity was calculated by comparing the samples collected from the mice administrated of a compound described herein to the samples collected from the mice administrated of the vehicle. […]

[3] = target: Constitutive 20S proteasome trypsin-like (T-L) activity (Homo sapiens (Human), UniProt P49720+Q99436); test: Constitutive 20S proteasome T-L activity inhibition, fluorogenic substrate Boc-Leu-Arg-Arg-AMC; format: biochemical
Method: as §1, §2

[4] = target: Constitutive 20S proteasome peptidylglutamyl peptide hydrolyzing (PGPH) activity (Homo sapiens (Human), UniProt P28072+Q99436); test: Constitutive 20S proteasome PGPH activity inhibition, fluorogenic substrate Z-Leu-Leu-Glu-AMC; format: biochemical; conditions: purified human 20S proteasome, room temperature, one hour
Method: as §1, §2

[5] = target: 20S Immunoproteasome trypsin-like (T-L) activity (Homo sapiens (Human), UniProt P40306+P49720); test: 20S immunoproteasome T-L activity inhibition, fluorogenic substrate Boc-Leu-Arg-Arg-AMC; format: biochemical; conditions: purified human 20S proteasome, room temperature, one hour
Method: as §1, §2

[6] = system: T-L activity of the 20S proteasome in blood samples; test: Inhibition of proteasome T-L activity in blood samples from dosed Balb/c mice; format: in vivo; conditions: intravenous 10 mg/kg or oral gavage 30 mg/kg (route not given), one hour after dosing, vs vehicle
Method: as §3, §4

[7] = Aqueous solubility of the compounds; format: physicochemical; conditions: 50 mM citrate buffer, pH 4, aqueous buffer, thermodynamic from solid, 50 mM citrate pH4.0, 25° C.
Method: To determine the solubility of the compounds, 1-5 mg of a compound was weighed into a vial. 1 mL of aqueous buffer (50 mM citrate at pH4.0) was added. The vial was shaken at 25° C. for 24 hours and then centrifuged for 10 min at 10000 rpm. The supernatant was filtered through a 0.45 μm membrane filter and analyzed for the concentration of the compound. In certain embodiments, the aqueous solubility of the compounds is described herein in Table 1.

[8] = target: 20S Immunoproteasome peptidylglutamyl peptide hydrolyzing (PGPH) activity (Homo sapiens (Human), UniProt P28065+P40306); test: 20S immunoproteasome PGPH activity inhibition, fluorogenic substrate Z-Leu-Leu-Glu-AMC; format: biochemical; conditions: purified human 20S proteasome, room temperature, one hour
Method: as §1, §2

[9] = target: 20S Immunoproteasome chymotrypsin-like (CT-L) activity (Homo sapiens (Human), UniProt P20618+P28062); test: 20S immunoproteasome CT-L activity inhibition, fluorogenic substrate succinyl-Leu-Leu-Val-Tyr-AMC; format: biochemical; conditions: purified human 20S proteasome, room temperature, one hour
Method: as §1, §2

[10] = form of 20S proteasome not stated, 'below about'
[11] = purified human 20S proteasome, room temperature, one hour, read-out: Proteasome inhibition IC50 (nM) Constitutive 20S proteasome CT-L
[12] = purified human 20S proteasome, room temperature, one hour, read-out: Proteasome inhibition IC50 (nM) Constitutive 20S proteasome T-L

Row | SMILES | IC50 [1, 10] [nM] | IC50 [1, 11] [nM] | inhibition of CT-L activity in blood samples ([2]; intravenous 10 mg/kg or oral gavage 30 mg/kg (route not given)) | IC50 ([3]; form of 20S proteasome not stated, 'below about', read-out: concentration showing inhibition of T-L activity of the 20S proteasome) [nM] | IC50 [3, 12] [nM] | IC50 [4] [nM] | IC50 [5] [nM] | inhibition of T-L activity in blood samples [6] | solubility at 24 h [7] [µg/mL] | IC50 [8] [nM] | IC50 [9] [nM] | inhibition of CT-L activity in blood samples ([2]; oral gavage at 30 mg/kg)
1 | COC[C@H](NC(=O)[C@H](CCc1ccccc1)NC(=O)Cc1ccc(CN2CCOCC2)cc1)C(=O)N[C@@H](Cc1ccccc1)C(=O)[C@@]1(C)CO1 [CX13-608] | < 5 | 3.73 | inhibited both CT-L and T-L activity | < 500 | 490 | > 20000 | 542 | inhibited both CT-L and T-L activity | 1430 (≈ 2090 µM) | > 20000 | 4.26 | 
2 | COC[C@H](NC(=O)[C@H](CCc1ccccc1)NC(=O)c1cc(CN2CCOCC2)on1)C(=O)N[C@@H](Cc1ccccc1)C(=O)[C@@]1(C)CO1 [CX13-603] | < 50 | 14.2 |  |  | > 20000 | > 20000 | > 20000 |  | 520 (≈ 786 µM) | > 20000 | 11.1 | inhibited the CT-L activity in blood samples

Source: patent publication US10640533B2, “Epoxyketone compounds for enzyme inhibition” (CENTRAX INTERNATIONAL, INC., priority 2014, dated 2020)
